Results taken from patent US8440628B2, “Medical compositions containing ghrelin” (Daiichi Sankyo Company, Limited, priority 2002, dated 2013).

Tests used:
Type in all cases: physicochemical
[1] = Stability of human ghrelin in 0.1M HCl and Mcllvain buffer solutions of various pH at 25°C (Example 2, HPLC peak area ratio); conditions: human ghrelin 0.5 mg/mL in Mcllvain buffer
Protocol: Human ghrelin was dissolved in the following aqueous solutions in the concentration of about 0.15 μmol/mL (0.5 mg/mL).
0.1M HCl aqueous solution (pH: 1.1)
The pH was adjusted with 0.1M citric aqueous acid and 0.2M dibasic sodium phosphate aqueous solution.
Each solution were stored at 25±2° C. for 8, 24, 48 and 72 hours respectively, and the obtained solutions were detected by HPLC analysis in comparison to the solutions before storage. […] No significant changes of pH in solution before storage and after storage were observed.

[2] = Stability of human ghrelin in Britton-Robinson buffer solutions of various pH at 40°C (Example 3); conditions: pH of 3.1, 4.0, 5.0 and 6.0, 40±1°C, storage time not stated, target value 85%
Protocol: Human ghrelin, which is one of the ghrelins, was dissolved in the Britton-Robinson buffer solutions which is adjusted by combining 0.04M phosphoric acid-acetic acid-boric acid aqueous solution and 0.2M sodium hydrate aqueous solution in appropriate ratio, having pH of 2.1, 3.1, 4.0, 5.0, 6.0, 7.0 and 7.9 to obtain an aqueous solution containing human ghrelin in the concentration of about 0.15 μmol/mL (0.5 mg/mL). The obtained solution was filled in brownish glass ampoules and the ampoules were sealed with fire. For the calculation of kinetic constant, the certain degrees of degradation products have to be occurred in the aqueous solution of the ghrelins, and therefore, the ampoules were stored at 40±1° C., which was severe conditions for storage. The concentration (residual ratio) of human ghrelin was conducted by HPLC with time. At the same time, the pH of the solution was measured and it was confirmed that there was no significant changes of pH in solution.
The kinetic constants in each pH solution were calculated from the sequential change of the residual ratio, and the results were shown in FIG. 2.

[3] = Stability of human ghrelin in citrate buffer solutions, 40°C/2 weeks (Example 4)
Protocol: The obtained solutions were filled in brownish glass ampoules and the ampoules were sealed with fire, then, each ampoules were stored at 40±1° C. for 2 weeks. After storage for 2 weeks, the HPLC analysis of the solutions was conducted to calculate the residual ratio from the concentration of human ghrelin. The change of pH value was also measured.

[4] = human ghrelin 0.5 mg/mL in citrate buffer solution pH 3.5, after storage for 40° C./2 weeks
[5] = human ghrelin 0.5 mg/mL in citrate buffer solution pH 3.5, just after preparation
[6] = human ghrelin 0.5 mg/mL in citrate buffer solution pH 4.0, after storage for 40° C./2 weeks
[7] = human ghrelin 0.5 mg/mL in citrate buffer solution pH 4.0, just after preparation
[8] = human ghrelin 0.5 mg/mL in citrate buffer solution pH 4.5, after storage for 40° C./2 weeks
[9] = human ghrelin 0.5 mg/mL in citrate buffer solution pH 4.5, just after preparation
[10] = human ghrelin 0.5 mg/mL in citrate buffer solution pH 5.0, after storage for 40° C./2 weeks
[11] = human ghrelin 0.5 mg/mL in citrate buffer solution pH 5.0, just after preparation

CCCCCCCC(=O)OC[C@H](NC(=O)[C@H](CO)NC(=O)CN)C(=O)N[C@@H](Cc1ccccc1)C(=O)N[C@@H](CC(C)C)C(=O)N[C@@H](CO)C(=O)N1CCC[C@H]1C(=O)N[C@@H](CCC(=O)O)C(=O)N[C@@H](Cc1c[nH]cn1)C(=O)N[C@@H](CCC(N)=O)C(=O)N[C@@H](CCCNC(=N)N)C(=O)N[C@H](C(=O)N[C@@H](CCC(N)=O)C(=O)N[C@@H](CCC(N)=O)C(=O)N[C@@H](CCCNC(=N)N)C(=O)N[C@@H](CCCCN)C(=O)N[C@@H](CCC(=O)O)C(=O)N[C@@H](CO)C(=O)N[C@@H](CCCCN)C(=O)N[C@@H](CCCCN)C(=O)N1CCC[C@H]1C(=O)N1CCC[C@H]1C(=O)N[C@@H](C)C(=O)N[C@@H](CCCCN)C(=O)N[C@@H](CC(C)C)C(=O)N[C@@H](CCC(N)=O)C(=O)N1CCC[C@H]1C(=O)N[C@@H](CCCNC(=N)N)C(=O)O)C(C)C [Human ghrelin]
pH observed ([1]; pH 4, 25±2°C, before storage): 4.0
Peak area ratio to total peak area ([1]; pH 5, 25±2°C, 8 hr. after): 99.04%
pH observed ([1]; pH 5, 25±2°C, 8 hr. after): 5.0
Peak area ratio to total peak area ([1]; pH 5, 25±2°C, 24 hr. after): 98.91%
pH observed ([1]; pH 5, 25±2°C, 24 hr. after): 5.0
Peak area ratio to total peak area ([1]; pH 5, 25±2°C, 48 hr. after): 98.59%
pH observed ([1]; pH 5, 25±2°C, 48 hr. after): 5.0
Peak area ratio to total peak area ([1]; pH 5, 25±2°C, 72 hr. after): 98.37%
pH observed ([1]; pH 5, 25±2°C, 72 hr. after): 5.0
Peak area ratio to total peak area ([1]; pH 5, 25±2°C, before storage): 99.06%
pH observed ([1]; pH 5, 25±2°C, before storage): 5.0
Peak area ratio to total peak area ([1]; pH 6, 25±2°C, 8 hr. after): 98.87%
pH observed ([1]; pH 6, 25±2°C, 8 hr. after): 6.0
Peak area ratio to total peak area ([1]; pH 6, 25±2°C, 24 hr. after): 98.28%
pH observed ([1]; pH 6, 25±2°C, 24 hr. after): 6.0
Peak area ratio to total peak area ([1]; pH 6, 25±2°C, 48 hr. after): 97.64%
pH observed ([1]; pH 6, 25±2°C, 48 hr. after): 6.0
Peak area ratio to total peak area ([1]; pH 6, 25±2°C, 48 hr. after, listed as human ghrelin): less than 98%
Peak area ratio to total peak area ([1]; pH 6, 25±2°C, 72 hr. after): 96.92%
pH observed ([1]; pH 6, 25±2°C, 72 hr. after): 6.0
Peak area ratio to total peak area ([1]; pH 6, 25±2°C, before storage): 99.07%
pH observed ([1]; pH 6, 25±2°C, before storage): 6.0
Peak area ratio to total peak area ([1]; pH 7, 25±2°C, 8 hr. after): 98.15%
pH observed ([1]; pH 7, 25±2°C, 8 hr. after): 7.0
Peak area ratio to total peak area ([1]; pH 7, 25±2°C, 24 hr. after): 96.18%
pH observed ([1]; pH 7, 25±2°C, 24 hr. after): 7.0
Peak area ratio to total peak area ([1]; pH 7, 25±2°C, 24 hr. after, listed as human ghrelin): less than 98%
Peak area ratio to total peak area ([1]; pH 7, 25±2°C, 48 hr. after): 93.44%
pH observed ([1]; pH 7, 25±2°C, 48 hr. after): 7.0
Peak area ratio to total peak area ([1]; pH 7, 25±2°C, 72 hr. after): 90.75%
pH observed ([1]; pH 7, 25±2°C, 72 hr. after): 7.0
Peak area ratio to total peak area ([1]; pH 7, 25±2°C, before storage): 98.97%
pH observed ([1]; pH 7, 25±2°C, before storage): 7.0
Peak area ratio to total peak area ([1]; pH 8, 25±2°C, 8 hr. after): 94.73%
pH observed ([1]; pH 8, 25±2°C, 8 hr. after): 7.9
Peak area ratio to total peak area ([1]; pH 8, 25±2°C, 24 hr. after): 87.32%
pH observed ([1]; pH 8, 25±2°C, 24 hr. after): 7.9
Peak area ratio to total peak area ([1]; pH 8, 25±2°C, 48 hr. after): 76.95%
pH observed ([1]; pH 8, 25±2°C, 48 hr. after): 7.9
Peak area ratio to total peak area ([1]; pH 8, 25±2°C, 72 hr. after): 68.30%
pH observed ([1]; pH 8, 25±2°C, 72 hr. after): 7.9
Peak area ratio to total peak area ([1]; pH 8, 25±2°C, before storage): 98.61%
pH observed ([1]; pH 8, 25±2°C, before storage): 8.0
Residual ratio [2]: more than 87%
Residual ratio [3, 4]: 89%
pH observed [3, 4]: 3.5
Residual ratio [3, 5]: 100%
pH observed [3, 5]: 3.6
Residual ratio [3, 6]: 88%
pH observed [3, 6]: 4.0
Residual ratio [3, 7]: 100%
pH observed [3, 7]: 4.0
Residual ratio [3, 8]: 86%
pH observed [3, 8]: 4.4
Residual ratio [3, 9]: 100%
pH observed [3, 9]: 4.5
Residual ratio [3, 10]: 85%
pH observed [3, 10]: 4.9
Residual ratio [3, 11]: 100%
pH observed [3, 11]: 5.0
